Data as given in patent US11793849B2, “Method of Chinese herbal medicine extract used for treating multiple diseases caused by drug resistant bacteria infection” (priority 2016, dated 2023).
≈ marks a conversion by molar mass, not a printed value. Read-outs that look alike come from different tables or passages of the source.

What was measured:
[1] = test system: ATCC27853; experiment: MIC determination, control strain; type: cell-based
Experimental: Determination methods of a Minimal Inhibitory Concentration (MIC) and a Minimum Bactericidal Concentration (MBC) of a test product: the MIC and the MBC of the Pithecellobium clypearia Benth water or ethanol extract to the MDRAB are determined by a microdilution broth method.

[2] = test system: MDRPA; experiment: Checkerboard assay (combined-use MIC, FIC); type: cell-based, Pseudomonas aeruginosa; settings: for FIC, all strains / MIC50 of the antibiotic after combined use / MIC90 of the antibiotic after combined use / reduction of the antibiotic's MIC50 vs single use / reduction of the antibiotic's MIC90 vs single use / share of strains with FIC ≤ 0.5: 20 MDRPAs; for combined-use MIC: EA (P. clypearia water extract) combined with AMK
Experimental: Test methods of the sensibilization effects of the test product to similar antibiotics: it is operated by referring to a checkerboard assay recommended by NCCLS.
The checkerboard assay is performed in a 96-pore sterile culture plate.
Calculation of a Fractional Inhibitory Concentration (FIC): FIC=S20b combined-use MIC/S20b single-use MIC+antibiotic combined-use MIC/antibiotic single-use MIC. By calculating the FIC, the combined antibacterial interaction between the EA and the antibiotic is evaluated, with synergistic effect for FIC≤0.5, additive effect for 0.5<FIC≤1, indifferent effect for 1<FIC≤2 and antagonistic effect for FIC>2. According to a sterile growth pore, the optimum concentration ratio between the EA and the antibiotic is founded out. At last, the effect of the EA to strengthen the efficacy of the antibiotic is evaluated.

[3] = test system: MDRPA; experiment: MIC determination, microdilution broth method; settings: 20 MDRPAs;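 also: broth microdilution per NCCLS recommendations, testing Pithecellobium clypearia water or ethanol extracts against multidrug-resistant Pseudomonas aeruginosa, with MIC50 and MIC90 derived statistically from individual MICs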
[4] = antibiotic with 10% ethanol extract
[5] = antibiotic with 60% ethanol extract
[6] = antibiotic with 95% ethanol extract
[7] = antibiotic with EA (water extract)

SMILES: NCC[C@H](O)C(=O)N[C@@H]1C[C@H](N)[C@@H](O[C@H]2O[C@H](CN)[C@@H](O)[C@H](O)[C@H]2O)[C@H](O)[C@H]1O[C@H]1O[C@H](CO)[C@@H](O)[C@H](N)[C@H]1O [AMK, Amikacin]
- MIC ([1]; EA=P. clypearia 10% ethanol extract, read-out: MIC (single use)): 2 µg/mL (≈ 3.42 µM)
- MIC ([1]; EA=P. clypearia water extract, read-out: MIC (single use)): 2 µg/mL (≈ 3.42 µM)
- MIC ([1]; single use, EA = 60% ethanol extract, read-out: MIC): 2 µg/mL (≈ 3.42 µM)
- MIC ([1]; single use, EA = 95% ethanol extract, read-out: MIC): 2 µg/mL (≈ 3.42 µM)
- FIC, all strains [2, 4]: ≤ 2
- MIC50 of the antibiotic after combined use [2, 4]: 0.0625 µg/mL
- MIC90 of the antibiotic after combined use [2, 4]: 4 µg/mL
- reduction of the antibiotic's MIC50 vs single use [2, 4]: 93.75%
- reduction of the antibiotic's MIC90 vs single use [2, 4]: 87.5%
- share of strains with FIC ≤ 0.5 [2, 4]: 30%
- FIC, all strains [2, 5]: ≤ 2
- MIC50 of the antibiotic after combined use [2, 5]: 0.0625 µg/mL
- MIC90 of the antibiotic after combined use [2, 5]: 2 µg/mL
- reduction of the antibiotic's MIC50 vs single use [2, 5]: 93.75%
- reduction of the antibiotic's MIC90 vs single use [2, 5]: 93.75%
- share of strains with FIC ≤ 0.5 [2, 5]: 20%
- FIC, all strains [2, 6]: ≤ 2
- MIC50 of the antibiotic after combined use [2, 6]: 0.12 µg/mL
- MIC90 of the antibiotic after combined use [2, 6]: 4 µg/mL
- reduction of the antibiotic's MIC50 vs single use [2, 6]: 87.5%
- reduction of the antibiotic's MIC90 vs single use [2, 6]: 87.5%
- share of strains with FIC ≤ 0.5 [2, 6]: 40%
- FIC, all strains [2, 7]: ≤ 2
- MIC50 of the antibiotic after combined use [2, 7]: 0.0625 µg/mL
- MIC90 of the antibiotic after combined use [2, 7]: 2 µg/mL
- reduction of the antibiotic's MIC50 vs single use [2, 7]: 93.75%
- reduction of the antibiotic's MIC90 vs single use [2, 7]: 93.75%
- share of strains with FIC ≤ 0.5 [2, 7]: 35%
- combined-use MIC ([2]; strain P1): 0.0625 µg/mL
- combined-use MIC ([2]; strain P2): 0.0625 µg/mL
- combined-use MIC ([2]; strain P3): 1 µg/mL
- combined-use MIC ([2]; strain P4): 0.5 µg/mL
- combined-use MIC ([2]; strain P5): 0.0625 µg/mL
- combined-use MIC ([2]; strain P6): 64 µg/mL
- combined-use MIC ([2]; strain P7): 0.0625 µg/mL
- combined-use MIC ([2]; strain P8): 0.5 µg/mL
- combined-use MIC ([2]; strain P9): 0.0625 µg/mL
- combined-use MIC ([2]; strain P10): 1 µg/mL
- combined-use MIC ([2]; strain P11): 0.5 µg/mL
- combined-use MIC ([2]; strain P12): 8 µg/mL
- combined-use MIC ([2]; strain P13): 0.0625 µg/mL
- combined-use MIC ([2]; strain P14): 0.0625 µg/mL
- combined-use MIC ([2]; strain P15): 0.0625 µg/mL
- combined-use MIC ([2]; strain P16): 0.0625 µg/mL
- combined-use MIC ([2]; strain P17): 0.0625 µg/mL
- combined-use MIC ([2]; strain P18): 4 µg/mL
- combined-use MIC ([2]; strain P19): 0.0625 µg/mL
- combined-use MIC ([2]; strain P20): 1 µg/mL
- MIC50 ([3]; EA = 60% ethanol extract): 1 µg/mL (≈ 1.71 µM)
- MIC90 ([3]; EA = 60% ethanol extract): 32 µg/mL (≈ 54.6 µM)
- MIC Range ([3]; EA = 60% ethanol extract): 1 to 256 µg/mL
- MIC50 ([3]; EA = 95% ethanol extract): 1 µg/mL (≈ 1.71 µM)
- MIC90 ([3]; EA = 95% ethanol extract): 32 µg/mL (≈ 54.6 µM)
- MIC Range ([3]; EA = 95% ethanol extract): 1 to 256 µg/mL
